Source: patent publication US20230085307A1, “PYRIDAZINONE COMPOUND AND HERBICIDE” (NISSAN CHEMICAL CORPORATION, priority 2019, published 2023)

Legend:
barnyard grass [1] = test: Test Example 3: herbicidal effect by foliage application, Wagner pot (Table 18, symbol H); assay type: in vivo, barnyard grass (Echinochloa crus-galli); details: 320 g/ha
Summary of the method: (§1)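 Plants were sown in alluvial soil held under 0.1–0.5 cm standing water and grown 14 days in a greenhouse at 25–30 °C. An emulsifiable formulation, water-diluted to the set dose, was then sprayed onto the foliage, and effects were scored three weeks later using previously defined criteria.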

Chinese sprangletop = test: Test Example 3: herbicidal effect by foliage application, Wagner pot (Table 18, symbol D); assay type: in vivo, chinese sprangletop (Leptochloa chinensis); details: 320 g/ha
Summary of the method: as §1

rice flat sedge = test: Test Example 3: herbicidal effect by foliage application, Wagner pot (Table 18, symbol E); assay type: in vivo, rice flat sedge (Cyperus iria); details: 320 g/ha
Summary of the method: as §1

southern crabgrass [2] = test: Test Example 4: herbicidal effect by soil treatment (Table 19, symbol F); assay type: in vivo, southern crabgrass (Digitaria ciliaris); details: amount of applied herbicide 320 g/ha
Summary of the method: (§2)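 Emulsion of test compound, water-diluted to predetermined amount, sprayed on soil after sowing (seed depth ~1.5 cm, sterilized diluvial soil). Greenhouse, 25–30° C. Effect graded at three weeks post-spray.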

green foxtail [3] = test: Test Example 4: herbicidal effect by soil treatment (Table 19, symbol G); assay type: in vivo, green foxtail (Setaria viridis); details: amount of applied herbicide 320 g/ha
Summary of the method: as §2

barnyard grass [4] = test: Test Example 4: herbicidal effect by soil treatment (Table 19, symbol H); assay type: in vivo, barnyard grass (Echinochloa crus-galli); details: amount of applied herbicide 320 g/ha
Summary of the method: as §2

wild oat [5] = test: Test Example 4: herbicidal effect by soil treatment (Table 19, symbol I); assay type: in vivo, wild oat (Avena fatua); details: amount of applied herbicide 320 g/ha
Summary of the method: as §2

blackgrass [6] = test: Test Example 4: herbicidal effect by soil treatment (Table 19, symbol J); assay type: in vivo, blackgrass (Alopecurus myosuroides); details: amount of applied herbicide 320 g/ha
Summary of the method: as §2

Italian ryegrass [7] = test: Test Example 4: herbicidal effect by soil treatment (Table 19, symbol K); assay type: in vivo, Italian ryegrass (Lolium multiflorum); details: amount of applied herbicide 320 g/ha
Summary of the method: as §2

windgrass [8] = test: Test Example 4: herbicidal effect by soil treatment (Table 19, symbol L); assay type: in vivo, windgrass (Apera spica-venti); details: amount of applied herbicide 320 g/ha
Summary of the method: as §2

velvetleaf [9] = test: Test Example 4: herbicidal effect by soil treatment (Table 19, symbol M); assay type: in vivo, velvetleaf (Abutilon theophrasti); details: amount of applied herbicide 320 g/ha
Summary of the method: as §2

redroot pigweed [10] = test: Test Example 4: herbicidal effect by soil treatment (Table 19, symbol N); assay type: in vivo, redroot pigweed (Amaranthus retroflexus); details: amount of applied herbicide 320 g/ha
Summary of the method: as §2

lambsquarters [11] = test: Test Example 4: herbicidal effect by soil treatment (Table 19, symbol O); assay type: in vivo, lambsquarters (Chenopodium album); details: amount of applied herbicide 320 g/ha
Summary of the method: as §2

chickweed [12] = test: Test Example 4: herbicidal effect by soil treatment (Table 19, symbol P); assay type: in vivo, common chickweed (Stellaria media); details: amount of applied herbicide 320 g/ha
Summary of the method: as §2

false cleavers [13] = test: Test Example 4: herbicidal effect by soil treatment (Table 19, symbol Q); assay type: in vivo, false cleavers (Galium spurium); details: amount of applied herbicide 320 g/ha
Summary of the method: as §2

persian speedwell [14] = test: Test Example 4: herbicidal effect by soil treatment (Table 19, symbol R); assay type: in vivo, Persian speedwell (Veronica persica); details: amount of applied herbicide 320 g/ha
Summary of the method: as §2

southern crabgrass [15] = test: Test Example 5: herbicidal effect by foliage application, plastic box (Table 20, symbol F); assay type: in vivo, southern crabgrass (Digitaria ciliaris); details: foliage application, 320 g/ha, three weeks after application
Summary of the method: (§3)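 Post-emergence foliar test in sterilized diluvial soil. Compound applied as water-diluted emulsion at a predetermined rate to 14-day-old plants; evaluation at three weeks.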

green foxtail [16] = test: Test Example 5: herbicidal effect by foliage application, plastic box (Table 20, symbol G); assay type: in vivo, green foxtail (Setaria viridis); details: foliage application, 320 g/ha, three weeks after application
Summary of the method: as §3

barnyard grass [17] = test: Test Example 5: herbicidal effect by foliage application, plastic box (Table 20, symbol H); assay type: in vivo, barnyard grass (Echinochloa crus-galli); details: foliage application, 320 g/ha, three weeks after application
Summary of the method: as §3

wild oat [18] = test: Test Example 5: herbicidal effect by foliage application, plastic box (Table 20, symbol I); assay type: in vivo, wild oat (Avena fatua); details: foliage application, 320 g/ha, three weeks after application
Summary of the method: as §3

blackgrass [19] = test: Test Example 5: herbicidal effect by foliage application, plastic box (Table 20, symbol J); assay type: in vivo, blackgrass (Alopecurus myosuroides); details: foliage application, 320 g/ha, three weeks after application
Summary of the method: as §3

Italian ryegrass [20] = test: Test Example 5: herbicidal effect by foliage application, plastic box (Table 20, symbol K); assay type: in vivo, Italian ryegrass (Lolium multiflorum); details: foliage application, 320 g/ha, three weeks after application
Summary of the method: as §3

windgrass [21] = test: Test Example 5: herbicidal effect by foliage application, plastic box (Table 20, symbol L); assay type: in vivo, windgrass (Apera spica-venti); details: foliage application, 320 g/ha, three weeks after application
Summary of the method: as §3

velvetleaf [22] = test: Test Example 5: herbicidal effect by foliage application, plastic box (Table 20, symbol M); assay type: in vivo, velvetleaf (Abutilon theophrasti); details: foliage application, 320 g/ha, three weeks after application
Summary of the method: as §3

redroot pigweed [23] = test: Test Example 5: herbicidal effect by foliage application, plastic box (Table 20, symbol N); assay type: in vivo, redroot pigweed (Amaranthus retroflexus); details: foliage application, 320 g/ha, three weeks after application
Summary of the method: as §3

lambsquarters [24] = test: Test Example 5: herbicidal effect by foliage application, plastic box (Table 20, symbol O); assay type: in vivo, lambsquarters (Chenopodium album); details: foliage application, 320 g/ha, three weeks after application
Summary of the method: as §3

chickweed [25] = test: Test Example 5: herbicidal effect by foliage application, plastic box (Table 20, symbol P); assay type: in vivo, common chickweed (Stellaria media); details: foliage application, 320 g/ha, three weeks after application
Summary of the method: as §3

false cleavers [26] = test: Test Example 5: herbicidal effect by foliage application, plastic box (Table 20, symbol Q); assay type: in vivo, false cleavers (Galium spurium); details: foliage application, 320 g/ha, three weeks after application
Summary of the method: as §3

persian speedwell [27] = test: Test Example 5: herbicidal effect by foliage application, plastic box (Table 20, symbol R); assay type: in vivo, Persian speedwell (Veronica persica); details: foliage application, 320 g/ha, three weeks after application
Summary of the method: as §3

Compound	herbicidal effect on barnyard grass (H) (barnyard grass [1])	herbicidal effect on Chinese sprangletop (D) (Chinese sprangletop)	herbicidal effect on rice flat sedge (E) (rice flat sedge)	F: southern crabgrass, herbicidal effect grade (southern crabgrass [2])	G: green foxtail, herbicidal effect grade (green foxtail [3])	H: barnyard grass, herbicidal effect grade (barnyard grass [4])	I: wild oat, herbicidal effect grade (wild oat [5])	J: blackgrass, herbicidal effect grade (blackgrass [6])	K: Italian ryegrass, herbicidal effect grade (Italian ryegrass [7])	L: windgrass, herbicidal effect grade (windgrass [8])	M: velvetleaf, herbicidal effect grade (velvetleaf [9])	N: redroot pigweed, herbicidal effect grade (redroot pigweed [10])	O: lambsquarters, herbicidal effect grade (lambsquarters [11])	P: chickweed, herbicidal effect grade (chickweed [12])	Q: false cleavers, herbicidal effect grade (false cleavers [13])	R: persian speedwell, herbicidal effect grade (persian speedwell [14])	F: southern crabgrass, herbicidal effect grade (southern crabgrass [15])	G: green foxtail, herbicidal effect grade (green foxtail [16])	H: barnyard grass, herbicidal effect grade (barnyard grass [17])	I: wild oat, herbicidal effect grade (wild oat [18])	further results
CCCC(=O)Oc1c(C)nn(C)c(=O)c1-c1c(-c2ccc(OC(C)C)cc2)sc2cc(Cl)ccc12 [3-042]	4 (Herbicidal rate of 70% or more and less than 90%)	0 (Herbicidal rate of 5% or less (almost no effect))	3 (Herbicidal rate of 40% or more and less than 70%)	0 (Herbicidal rate of 5% or less (almost no effect))	0 (Herbicidal rate of 5% or less (almost no effect))	0 (Herbicidal rate of 5% or less (almost no effect))	0 (Herbicidal rate of 5% or less (almost no effect))	0 (Herbicidal rate of 5% or less (almost no effect))	0 (Herbicidal rate of 5% or less (almost no effect))	0 (Herbicidal rate of 5% or less (almost no effect))	0 (Herbicidal rate of 5% or less (almost no effect))	3 (Herbicidal rate of 40% or more and less than 70%)	0 (Herbicidal rate of 5% or less (almost no effect))	0 (Herbicidal rate of 5% or less (almost no effect))	0 (Herbicidal rate of 5% or less (almost no effect))	0 (Herbicidal rate of 5% or less (almost no effect))	0 (Herbicidal rate of 5% or less (almost no effect))	0 (Herbicidal rate of 5% or less (almost no effect))	0 (Herbicidal rate of 5% or less (almost no effect))	0 (Herbicidal rate of 5% or less (almost no effect))	J: blackgrass, herbicidal effect grade (blackgrass [19]): 0 (Herbicidal rate of 5% or less (almost no effect)); K: Italian ryegrass, herbicidal effect grade (Italian ryegrass [20]): 0 (Herbicidal rate of 5% or less (almost no effect)); L: windgrass, herbicidal effect grade (windgrass [21]): 0 (Herbicidal rate of 5% or less (almost no effect)); M: velvetleaf, herbicidal effect grade (velvetleaf [22]): 3 (Herbicidal rate of 40% or more and less than 70%); N: redroot pigweed, herbicidal effect grade (redroot pigweed [23]): 3 (Herbicidal rate of 40% or more and less than 70%); O: lambsquarters, herbicidal effect grade (lambsquarters [24]): 3 (Herbicidal rate of 40% or more and less than 70%); P: chickweed, herbicidal effect grade (chickweed [25]): 0 (Herbicidal rate of 5% or less (almost no effect)); Q: false cleavers, herbicidal effect grade (false cleavers [26]): 0 (Herbicidal rate of 5% or less (almost no effect)); R: persian speedwell, herbicidal effect grade (persian speedwell [27]): 0 (Herbicidal rate of 5% or less (almost no effect))
COc1ccc(-c2sc3cc(C)ccc3c2-c2c(O)c(C)nn(C)c2=O)cc1 [3-051]	1 (Herbicidal rate of 5% or more and less than 20%)	0 (Herbicidal rate of 5% or less (almost no effect))	3 (Herbicidal rate of 40% or more and less than 70%)	0 (Herbicidal rate of 5% or less (almost no effect))	0 (Herbicidal rate of 5% or less (almost no effect))	0 (Herbicidal rate of 5% or less (almost no effect))	0 (Herbicidal rate of 5% or less (almost no effect))	0 (Herbicidal rate of 5% or less (almost no effect))	0 (Herbicidal rate of 5% or less (almost no effect))	0 (Herbicidal rate of 5% or less (almost no effect))	0 (Herbicidal rate of 5% or less (almost no effect))	0 (Herbicidal rate of 5% or less (almost no effect))	0 (Herbicidal rate of 5% or less (almost no effect))	0 (Herbicidal rate of 5% or less (almost no effect))	0 (Herbicidal rate of 5% or less (almost no effect))	4 (Herbicidal rate of 70% or more and less than 90%)	0 (Herbicidal rate of 5% or less (almost no effect))	0 (Herbicidal rate of 5% or less (almost no effect))	0 (Herbicidal rate of 5% or less (almost no effect))	0 (Herbicidal rate of 5% or less (almost no effect))	J: blackgrass, herbicidal effect grade (blackgrass [19]): 0 (Herbicidal rate of 5% or less (almost no effect)); K: Italian ryegrass, herbicidal effect grade (Italian ryegrass [20]): 1 (Herbicidal rate of 5% or more and less than 20%); L: windgrass, herbicidal effect grade (windgrass [21]): 0 (Herbicidal rate of 5% or less (almost no effect)); M: velvetleaf, herbicidal effect grade (velvetleaf [22]): 0 (Herbicidal rate of 5% or less (almost no effect)); N: redroot pigweed, herbicidal effect grade (redroot pigweed [23]): 0 (Herbicidal rate of 5% or less (almost no effect)); O: lambsquarters, herbicidal effect grade (lambsquarters [24]): 0 (Herbicidal rate of 5% or less (almost no effect)); P: chickweed, herbicidal effect grade (chickweed [25]): 4 (Herbicidal rate of 70% or more and less than 90%); Q: false cleavers, herbicidal effect grade (false cleavers [26]): 0 (Herbicidal rate of 5% or less (almost no effect)); R: persian speedwell, herbicidal effect grade (persian speedwell [27]): 5 (Herbicidal rate of 90% or more (almost completely withered))
